Assay results reported in patent US9296698B2, “Amino heteroaryl compounds as beta-secretase modulators and methods of use” (Amgen Inc., priority 2009, dated 2016).
Where two headings read alike, the source gives them in different places.

Tests used:
[1] = system: Aβ40 in conditioned medium of cells stably expressing Amyloid Precursor Protein (APP); experiment: In vitro BACE cell-based assay (HEK cell assay), Aβ40 sandwich ELISA
Experimental: In Vitro BACE Cell-Based Assay:
The cell-based assay measures inhibition or reduction of Aβ40 in conditioned medium of test compound treated cells expressing amyloid precursor protein.
Cells stably expressing Amyloid Precursor Protein (APP) were plated at a density of 40K cells/well in 96 well plates (Costar). The cells were cultivated for 24 hours at 37° C. and 5% CO2 in DMEM supplemented with 10% FBS. The test compounds were then added to cells in 10-point dose response concentrations with the starting concentration being either 100 μM or 10 μM. The compounds were diluted from stock solutions in DMSO and the final DMSO concentration of the test compounds on cells was 0.1%. After 24 h of incubation with the test compounds the supernatant conditioned media was collected and the Aβ 40 levels were determined using a sandwich ELISA. The IC50 of the compound was calculated from the percent of control or percent inhibition of Aβ 40 as a function of the concentration of the test compound.
The sandwich ELISA to detect Aβ 40 was performed in 96 well microtiter plates, which were pre-treated with goat anti-rabbit IgG (Pierce). The capture and detecting antibody pair that were used to detect Aβ 40 from cell supernatants were affinity purified pAb40 (Biosource) and biotinylated 6E10 (Signet Labs Inc.), respectively. The optimal concentration for the pAb40 antibody was 3 μg/ml in Superblock/TBS (Pierce) that was supplemented with 0.05% Tween 20 (Sigma).
Cellular supernatants were incubated with the capture antibody for 3 h at 4° C., followed by 3 wash steps in TBS-tween (0.05%). The detecting antibody incubation was for 2 h at 4° C., again followed by the wash steps as described previously. The final readout of the ELISA is Time-Resolved Fluorescence (counts per minute) using Delfia reagents Streptavidin-Europium and Enhancement solutions (Perkin Elmer) and the Victor 2 multilabel counter (Perkin Elmer).

[2] = biological target: BACE 1 (Beta Secretase enzyme) (Homo sapiens, UniProt P56817); experiment: In vitro enzymatic BACE FRET assay; format: biochemical; conditions: IC50 range symbols, Table 1; read-out: BACE 1 FRET assay
BACE 1 (Beta Secretase enzyme), sequence (P56817 46-501, species assumed): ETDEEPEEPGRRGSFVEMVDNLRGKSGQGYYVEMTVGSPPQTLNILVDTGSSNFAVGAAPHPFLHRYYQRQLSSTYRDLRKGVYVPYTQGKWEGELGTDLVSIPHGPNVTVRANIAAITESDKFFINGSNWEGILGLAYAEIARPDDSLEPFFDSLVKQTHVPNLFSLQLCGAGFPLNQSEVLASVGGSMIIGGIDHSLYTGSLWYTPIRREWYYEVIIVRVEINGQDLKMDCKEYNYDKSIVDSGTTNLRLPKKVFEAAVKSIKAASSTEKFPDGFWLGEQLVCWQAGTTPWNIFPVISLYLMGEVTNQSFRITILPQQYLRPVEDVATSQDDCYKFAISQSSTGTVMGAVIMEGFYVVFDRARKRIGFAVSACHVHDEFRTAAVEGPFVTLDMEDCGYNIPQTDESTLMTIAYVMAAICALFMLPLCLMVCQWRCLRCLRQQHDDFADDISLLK
Experimental: In Vitro Enzymatic BACE FRET (Fluorescence Resonance Energy Transfer) Assay (Enzyme Assay Data in Table 1)
The assay buffer used in this screen is 0.05 M acetate, pH 4.2, 10% DMSO final, 100 uM genapol (which is a nonionic detergent, below its Critical Micelle Concentration). […] The assay is effectively started by the addition of FRET substrate (50 nM) and the combination is incubated for one hour. The FRET assay is terminated with by addition of Tris buffer, which raises the pH to neutrality, and the fluorescence is determined. The FRET substrate is a peptide with commercially available fluorophore and quencher, on opposite sides of the BACE cleavage site.

[3] = Homo sapiens, HEK293, 24 h, IC50 range symbols, Table 1, Aβ40, 24 h incubation, read-out: HEK cell assay
[4] = IC50 range symbols, Table 1, Aβ40, 24 h incubation, read-out: HEK cell assay

For `Cc1cccnc1-c1ccc2nc(N)c(CC(C)C(=O)NCCC(C)C)cc2c1` (stereo not drawn) [Example 109, 3-(2-amino-6-(3-methylpyridin-2-yl)quinolin-3-yl)-N-isopentyl-2-methylpropanamide], the IC50 [1, 3] was < 0.5 µM and the IC50 [2] was < 0.5 µM.
In the case of `CCc1ccccc1-c1ccc2nc(N)c(CCC(=O)NCC3CCCCC3)cc2c1` [Example 49, 3-(2-amino-6-(2-ethylphenyl)quinolin-3-yl)-N-(cyclohexylmethyl)propanamide], the IC50 [1, 3] is reported as 1 to 5 µM and the IC50 [2] is reported as < 0.5 µM.
With “3-(3-amino-7-o-tolylnaphthalen-2-yl)-N-((S)-1-cyclohexylethyl)propanamide [Example 35]” the IC50 [1, 4] was > 5 µM and the IC50 [2] was < 0.5 µM.
`CC(Cc1cc2cc(-c3cccc(Cl)c3Cl)ccc2nc1N)C(=O)NC1CCOC(C)(C)C1` (stereo not drawn) [Example 159, 3-(2-amino-6-(2,3-dichlorophenyl)quinolin-3-yl)-N-(2,2-dimethyltetrahydro-2H-pyran-4-yl)-2-methylpropanamide] was tested, and the IC50 [1, 3] was < 0.5 µM and the IC50 [2] was < 0.5 µM.
In the case of `Cc1ccccc1-c1ccc2nc(N)c(C(C)CC(=O)NCC3CCCCC3)cc2c1` (stereo not drawn) [Example 6, 3-(2-amino-6-o-tolylquinolin-3-yl)-N-(cyclohexylmethyl)butanamide], the IC50 [1, 3] is reported as > 5 µM and the IC50 [2] is reported as < 0.5 µM.
In the case of “3-(2-amino-6-(2-((2-methoxyphenyl)carbonyl)phenyl)-3-quinolinyl)-N-(2,2-dimethyltetrahydro-2H-pyran-4-yl)-2-methylpropanamide [Example 146]”, the IC50 [1, 4] is reported as < 0.5 µM and the IC50 [2] is reported as < 0.5 µM.
In the case of `Cc1cccnc1-c1ccc2nc(N)c(CC(C)C(=O)NC[C@H]3CCCOC3)cc2c1` (stereo partly drawn) [Example 86, 3-(2-amino-6-(3-methylpyridin-2-yl)quinolin-3-yl)-2-methyl-N-(((R)-tetrahydro-2H-pyran-3-yl)methyl)propanamide], the IC50 [1, 3] is reported as < 0.5 µM and the IC50 [2] is reported as < 0.5 µM.
With `Cc1ccccc1-c1ccc2nc(N)c(CC(C)C(=O)NC3CCCN(C)C3)cc2c1` (stereo not drawn) [Example 64, 3-(2-amino-6-o-tolylquinolin-3-yl)-2-methyl-N-(1-methylpiperidin-3-yl)propanamide] the IC50 [1, 3] was < 0.5 µM and the IC50 [2] was < 0.5 µM.
In the case of `Cc1ccccc1-c1ccc2nc(N)c(CCC(=O)NCC3CCCCO3)cc2c1` (stereo not drawn) [Example 40, 3-(2-amino-6-o-tolylquinolin-3-yl)-N-((tetrahydro-2H-pyran-2-yl)methyl)propanamide], the IC50 [1, 3] is reported as 1 to 5 µM and the IC50 [2] is reported as < 0.5 µM.
In the case of “3-(3-amino-7-o-tolylnaphthalen-2-yl)-N-(2-fluorophenyl)propanamide [Example 28]”, the IC50 [1, 4] is reported as 1 to 5 µM and the IC50 [2] is reported as 0.5 to 1 µM.
Work on “3-(2-amino-6-o-tolylquinolin-3-yl)-N-(tetrahydro-2H-pyran-4-yl)propanamide [Example 16]” yielded an IC50 [1, 4] of 1 to 5 µM and an IC50 [2] of 1 to 5 µM.
With `Cc1cccnc1-c1ccc2nc(N)c(CC(C)C(=O)NCCC3CCCO3)cc2c1` (stereo not drawn) [Example 113, 3-(2-amino-6-(3-methylpyridin-2-yl)quinolin-3-yl)-2-methyl-N-(2-(tetrahydrofuran-2-yl)ethyl)propanamide] the IC50 [1, 3] was 1 to 5 µM and the IC50 [2] was 0.5 to 1 µM.
With `CC(Cc1cc2cc(-c3ccc(F)cc3)ccc2nc1N)C(=O)NC1CCOC(C)(C)C1` (stereo not drawn) [Example 167, 3-(2-amino-6-(4-fluorophenyl)-3-quinolinyl)-N-(2,2-dimethyltetrahydro-2H-pyran-4-yl)-2-methylpropanamide] the IC50 [1, 3] was > 5 µM and the IC50 [2] was 1 to 5 µM.
In the case of `CC(C)(C)CCNC(=O)CCc1cc2cc(-c3ccccc3C(=O)N3CCCC3)ccc2nc1N` [Example 165, 3-(2-amino-6-(2-(1-pyrrolidinylcarbonyl)phenyl)-3-quinolinyl)-N-(3,3-dimethylbutyl)propanamide], the IC50 [1, 3] is reported as 1 to 5 µM and the IC50 [2] is reported as < 0.5 µM.
`CC(Cc1cc2cc(-c3ncccc3CCN3CCOCC3)ccc2nc1N)C(=O)NCCC(C)(C)C` (stereo not drawn) [Example 123, 3-(2-amino-6-(3-(2-morpholinoethyl)pyridin-2-yl)quinolin-3-yl)-N-(3,3-dimethylbutyl)-2-methylpropanamide] was tested, and the IC50 [1, 3] was < 0.5 µM and the IC50 [2] was < 0.5 µM.
For “3-(3-amino-7-o-tolylnaphthalen-2-yl)-N-(2-methoxy-2-methylpropyl)propanamide [Example 29]”, the IC50 [1, 4] was 1 to 5 µM and the IC50 [2] was 0.5 to 1 µM.
In the case of `Cc1ccccc1-c1ccc2nc(N)c(C[C@@H](C)C(=O)NCc3ncccn3)cc2c1` [Example 85, (R)-3-(2-amino-6-o-tolylquinolin-3-yl)-2-methyl-N-(pyrimidin-2-ylmethyl)propanamide], the IC50 [1, 3] is reported as < 0.5 µM and the IC50 [2] is reported as < 0.5 µM.
With `CC(Cc1cc2cc(-c3ccc(Cl)cc3)ccc2nc1N)C(=O)NC1CCOC(C)(C)C1` (stereo not drawn) [Example 168, 3-(2-amino-6-(4-chlorophenyl)-3-quinolinyl)-N-(2,2-dimethyltetrahydro-2H-pyran-4-yl)-2-methylpropanamide] the IC50 [1, 3] was < 0.5 µM and the IC50 [2] was < 0.5 µM.
`Cc1ccccc1-c1ccc2nc(N)c(CCC(=O)NCC(C)(C)O)cc2c1` [Example 144, 3-(2-amino-6-(2-methylphenyl)-3-quinolinyl)-N-(2-hydroxy-2-methylpropyl)propanamide] gave an IC50 [1, 3] of 1 to 5 µM and an IC50 [2] of 1 to 5 µM.
`CC(Cc1cc2cc(-c3ccccc3Cl)ccc2nc1N)C(=O)NC1CCOC2(CCC2)C1` (stereo not drawn) [Example 171, 3-(2-amino-6-(2-chlorophenyl)-3-quinolinyl)-2-methyl-N-(5-oxaspiro[3,5]non-8-yl)propanamide] was tested, and the IC50 [1, 3] was < 0.5 µM and the IC50 [2] was < 0.5 µM.
“3-(3-amino-7-o-tolylnaphthalen-2-yl)-N-(6,7-dihydro-5H-cyclopenta[b]pyridin-7-yl)-2-methylpropanamide [Example 73]” was tested, and the IC50 [1, 4] was 1 to 5 µM and the IC50 [2] was < 0.5 µM.
For `Cc1ccccc1-c1ccc2nc(N)c(CCC(=O)NCc3ncco3)cc2c1` [Example 67, 3-(2-amino-6-o-tolylquinolin-3-yl)-N-(oxazol-2-ylmethyl)propanamide], the IC50 [1, 3] was 1 to 5 µM and the IC50 [2] was < 0.5 µM.
With `CC(Cc1cc2cc(-c3ccccc3CN(C)C)ccc2nc1N)C(=O)NCC1CCCCC1` (stereo not drawn) [Example 108, 3-(2-amino-6-(2-((dimethylamino)methyl)phenyl)quinolin-3-yl)-N-(cyclohexylmethyl)-2-methylpropanamide] the IC50 [1, 3] was < 0.5 µM, the IC50 ([1]; Homo sapiens, HEK293, bound stated in text, read-out: IC50 value in the BACE cell-based in-vitro assay) was < 0.1 µM and the IC50 [2] was < 0.5 µM.
“3-(3-amino-7-o-tolylnaphthalen-2-yl)-N-(2-methoxybutyl)propanamide [Example 26]” was tested, and the IC50 [1, 4] was 1 to 5 µM and the IC50 [2] was < 0.5 µM.
With `Cc1ccccc1-c1ccc2nc(N)c(CC(C)C(=O)NCC3CCOC3)cc2c1` (stereo not drawn) [Example 91, 3-(2-amino-6-o-tolylquinolin-3-yl)-2-methyl-N-((tetrahydrofuran-3-yl)methyl)propanamide] the IC50 [1, 3] was 1 to 5 µM and the IC50 [2] was < 0.5 µM.
For `Cc1ccccc1-c1ccc2nc(N)c(CCC(=O)NCc3ccn(C)n3)cc2c1` [Example 54, 3-(2-amino-6-o-tolylquinolin-3-yl)-N-((1-methyl-1H-pyrazol-3-yl)methyl)propanamide], the IC50 [1, 3] was > 5 µM and the IC50 [2] was 1 to 5 µM.
In the case of `Nc1nc2ccc(-c3ccccc3F)cc2cc1CCC(=O)NCC1CCCCC1` [Example 42, 3-(2-amino-6-(2-fluorophenyl)quinolin-3-yl)-N-(cyclohexylmethyl)propanamide], the IC50 [1, 3] is reported as > 5 µM and the IC50 [2] is reported as < 0.5 µM.
In the case of `Cc1cccnc1-c1ccc2nc(N)c(CC(C)C(=O)NC[C@@H]3CCCOC3)cc2c1` (stereo partly drawn) [Example 89, 3-(2-amino-6-(3-methylpyridin-2-yl)quinolin-3-yl)-2-methyl-N-(((S)-tetrahydro-2H-pyran-3-yl)methyl)propanamide], the IC50 [1, 3] is reported as 0.5 to 1 µM and the IC50 [2] is reported as < 0.5 µM.
